Counter-ions that a name gives are not always drawn.
Legend:
Test in all cases: Method 1: intracellular Ca2+ release (FLIPR, Calcium 5) in recombinant CHO-K1 cells
Assay type in all cases: cell-based
human S1PR1 receptor = target: T1, human S1PR1 receptor (Homo sapiens, UniProt P21453); conditions: (1): determined with method 1; read-out: S1P1 EC50
T1 construct: host or cells: CHO-K1
Method in brief: (§1)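 Agonist EC50 values come from nonlinear fits of FLIPR Ca2+ fluorescence, normalized to the phospho-fingolimod reference curve. Recombinant CHO-K1 (receptor plus Gq/i5, aequorin) dye-loaded 1 h at 37° C in pH 7.4 Hepes/probenecid/BSA buffer. Antagonist mode: 10 min preincubation before phospho-fingolimod at EC80.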

human S1PR4 receptor = target: T2, human S1PR4 receptor (Homo sapiens, UniProt O95977); conditions: (1): determined with method 1; read-out: S1P4 EC50
T2 construct: host or cells: CHO-K1
T2 sequence (O95977 1-384): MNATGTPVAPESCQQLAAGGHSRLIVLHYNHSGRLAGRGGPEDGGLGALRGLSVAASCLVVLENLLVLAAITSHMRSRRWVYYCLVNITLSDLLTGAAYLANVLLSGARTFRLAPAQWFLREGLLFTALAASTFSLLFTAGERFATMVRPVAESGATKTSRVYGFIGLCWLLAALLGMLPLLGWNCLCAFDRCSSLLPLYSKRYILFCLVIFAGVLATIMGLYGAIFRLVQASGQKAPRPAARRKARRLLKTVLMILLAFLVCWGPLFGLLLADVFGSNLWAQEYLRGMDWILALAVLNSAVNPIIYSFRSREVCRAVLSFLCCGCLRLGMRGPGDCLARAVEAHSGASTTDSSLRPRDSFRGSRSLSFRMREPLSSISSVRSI
Method in brief: as §1

human S1PR5 receptor = target: T3, human S1PR5 receptor (Homo sapiens, UniProt Q9H228); conditions: agonist potency, determined with method 1 (symbols A-D); read-out: S1P5 EC50 range
T3 construct: host or cells: CHO-K1
Method in brief: as §1

human S1PR3 receptor = target: T4, human S1PR3 receptor (Homo sapiens, UniProt Q99500); conditions: (1): determined with method 1; read-out: S1P3 EC50
T4 construct: host or cells: CHO-K1
Method in brief: as §1

T4 sequence (Q99500 whole entry): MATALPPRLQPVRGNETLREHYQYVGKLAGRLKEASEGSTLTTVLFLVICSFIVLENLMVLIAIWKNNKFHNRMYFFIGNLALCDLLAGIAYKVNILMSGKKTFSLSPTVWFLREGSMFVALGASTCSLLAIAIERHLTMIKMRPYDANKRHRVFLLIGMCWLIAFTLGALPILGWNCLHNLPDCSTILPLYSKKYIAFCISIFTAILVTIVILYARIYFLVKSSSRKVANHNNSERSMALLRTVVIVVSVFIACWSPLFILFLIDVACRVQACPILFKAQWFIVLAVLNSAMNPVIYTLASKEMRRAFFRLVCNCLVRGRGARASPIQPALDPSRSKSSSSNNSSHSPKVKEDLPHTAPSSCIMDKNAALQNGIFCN
T1 sequence (P21453 whole entry): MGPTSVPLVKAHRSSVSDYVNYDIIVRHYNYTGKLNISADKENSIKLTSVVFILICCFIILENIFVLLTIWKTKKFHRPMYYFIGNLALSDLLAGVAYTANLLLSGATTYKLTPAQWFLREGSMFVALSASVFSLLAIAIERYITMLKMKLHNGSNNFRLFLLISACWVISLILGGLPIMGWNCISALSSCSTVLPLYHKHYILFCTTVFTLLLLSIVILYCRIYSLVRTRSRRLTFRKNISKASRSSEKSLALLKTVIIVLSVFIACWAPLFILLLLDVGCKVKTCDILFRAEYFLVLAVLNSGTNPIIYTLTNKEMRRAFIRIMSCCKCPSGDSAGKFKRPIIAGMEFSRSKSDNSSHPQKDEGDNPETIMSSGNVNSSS
T3 sequence (Q9H228 whole entry): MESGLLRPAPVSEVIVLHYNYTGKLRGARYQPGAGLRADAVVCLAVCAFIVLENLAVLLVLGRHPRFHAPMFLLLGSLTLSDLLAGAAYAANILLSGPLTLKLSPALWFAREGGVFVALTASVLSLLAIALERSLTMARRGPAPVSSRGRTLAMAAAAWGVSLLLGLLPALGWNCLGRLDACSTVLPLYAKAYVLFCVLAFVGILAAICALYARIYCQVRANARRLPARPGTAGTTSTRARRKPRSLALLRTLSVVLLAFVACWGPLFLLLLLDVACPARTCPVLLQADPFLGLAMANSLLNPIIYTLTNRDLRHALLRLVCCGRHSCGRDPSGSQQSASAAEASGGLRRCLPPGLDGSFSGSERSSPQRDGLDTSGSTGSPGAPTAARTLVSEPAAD

Row | EC50 (human S1PR1 receptor) [nM] | EC50 (human S1PR4 receptor) [nM] | EC50 (human S1PR5 receptor) [nM] | EC50 (human S1PR3 receptor) [nM] | SMILES
1 | > 1000 | > 1000 | 1000 to 10000 | > 1000 | CC(C)c1ccc(C#Cc2ncc3c(n2)CCN(C2CC(C(=O)O)C2)C3)cc1 (centres unmarked) [Compound 58, 3-(2-((4-isopropylphenyl)ethynyl)-7,8-dihydropyrido[4,3-d]pyrimidin-6(5H)-yl)cyclobutanecarboxylic acid]
2 | > 1000 | > 1000 | < 10 | > 1000 | Cc1ccc(COc2ccc(-c3ncc4c(n3)CCN(CC(C)CC(=O)O)C4)cc2)cc1C(F)(F)F (centres unmarked) [Compound 247, 3-methyl-4-[2-[4-[[4-methyl-3-(trifluoromethyl)phenyl]methoxy]phenyl]-7,8-dihydro-5H-pyrido[4,3-d]pyrimidin-6-yl]butanoic acid 2,2,2-trifluoroacetic acid salt]
3 | > 1000 | > 1000 | 10 to 100 | > 1000 | CC(C)(C)c1ccc(COc2ccc(-c3ncc4c(n3)CCN(CCC(=O)O)C4)cc2)cc1 [Compound 87, 3-(2-(4-((4-(tert-butyl)benzyl)oxy)phenyl)-7,8-dihydropyrido[4,3-d]pyrimidin-6(5H)-yl)propanoic acid]
4 | > 1000 | > 1000 | < 10 | > 1000 | CC(CC(=O)O)CN1CCc2nc(-c3ccc(CCc4ccc(Cl)cc4F)cc3)ncc2C1 (centres unmarked) [Compound 250, 4-(2-(4-(4-chloro-2-fluorophenethyl)phenyl)-7,8-dihydropyrido[4,3-d]pyrimidin-6(5H)-yl)-3-methylbutanoic acid]
5 | > 1000 | > 1000 | < 10 | > 1000 | Cc1cc(-c2ncc3c(n2)CCN(CC(C)CC(=O)O)C3)ccc1OCc1ccccc1 (centres unmarked) [Compound 251, 4-(2-(4-(benzyloxy)-3-methylphenyl)-7,8-dihydropyrido[4,3-d]pyrimidin-6(5H)-yl)-3-methylbutanoic acid]
6 | > 1000 | < 1000 | 10 to 100 | > 1000 | CCc1cccc(Cl)c1COc1ccc(-c2ncc3c(n2)CCN(CC(C)C(=O)O)C3)cc1 (centres unmarked) [Compound 18, 3-(2-(4-((2-chloro-6-ethylbenzyl)oxy)phenyl)-7,8-dihydropyrido[4,3-d]pyrimidin-6(5H)-yl)-2-methylpropanoic acid]
7 | > 1000 | > 1000 | 1000 to 10000 | > 1000 | O=C(O)C1CC(N2CCc3nc(C#Cc4ccc(OCc5ccccc5)cc4)ncc3C2)C1 (centres unmarked) [Compound 59, 3-(2-((4-(benzyloxy)phenyl)ethynyl)-7,8-dihydropyrido[4,3-d]pyrimidin-6(5H)-yl)cyclobutanecarboxylic acid]
8 | > 1000 | > 1000 | < 10 | > 1000 | O=C(O)CCN1CCc2nc(-c3ccc(OCc4ccccc4OC(F)(F)F)cc3)ccc2C1 [Compound 155, 3-(2-(4-((2-trifluoromethoxybenzyl)oxy)phenyl)-7,8-dihydro-1,6-naphthyridin-6(5H)-yl)propanoic acid]
9 | < 1000 | < 1000 | 100 to 1000 | < 1000 | CCc1cccc(Cl)c1COc1ccc(-c2ncc3c(n2)CCN(CC(=O)O)C3)cc1 [Compound 35, 2-(2-(4-((2-chloro-6-ethylbenzyl)oxy)phenyl)-7,8-dihydropyrido[4,3-d]pyrimidin-6(5H)-yl)acetic acid]
10 | > 1000 | > 1000 | < 10 | > 1000 | Cc1c(COc2ccc(-c3ncc4c(n3)CCN(CC(C)CC(=O)O)C4)c(F)c2)cccc1C(F)(F)F (centres unmarked) [Compound 241, 4-[2-[2-fluoro-4-[[2-methyl-3-(trifluoromethyl)phenyl]methoxy]phenyl]-7,8-dihydro-5H-pyrido[4,3-d]pyrimidin-6-yl]-3-methyl-butanoic acid 2,2,2-trifluoroacetic acid salt]
11 | > 1000 | < 1000 | 100 to 1000 | < 1000 | Cc1cccc(C)c1COc1ccc(-c2ncc3c(n2)CCN(CC(=O)O)C3)cc1 [Compound 33, 2-(2-(4-((2,6-dimethylbenzyl)oxy)phenyl)-7,8-dihydropyrido[4,3-d]pyrimidin-6(5H)-yl)acetic acid]
12 | > 1000 | > 1000 | < 10 | > 1000 | O=C(O)CCN1CCc2cc(-c3ccc(OCc4cccc(Cl)c4)cc3)ncc2C1 [Compound 175, 3-(6-(4-((3-chlorobenzyl)oxy)phenyl)-3,4-dihydro-2,7-naphthyridin-2(1H)-yl)propanoic acid]
13 | > 1000 | > 1000 | < 10 | > 1000 | CC(CC(=O)O)CN1CCc2nc(-c3ccc(OCc4c(F)cccc4F)cc3F)ncc2C1 (centres unmarked) [Compound 240, 4-[2-[4-[(2,6-difluorophenyl)methoxy]-2-fluoro-phenyl]-7,8-dihydro-5H-pyrido[4,3-d]pyrimidin-6-yl]-3-methyl-butanoic acid 2,2,2-trifluoroacetic acid salt]
14 | > 1000 | > 1000 | 1000 to 10000 | > 1000 | CC(CCC(=O)O)N1CCc2nc(-c3ccc(Cc4ccccc4)cc3)ncc2C1 (centres unmarked) [Compound 214, 4-(2-(4-benzylphenyl)-7,8-dihydropyrido[4,3-d]pyrimidin-6(5H)-yl)pentanoic acid]
15 | > 1000 | > 1000 | 10 to 100 | > 1000 | CC(CCC(=O)O)N1CCc2nc(-c3ccc(OCc4cccc(Cl)c4)cc3)ncc2C1 (centres unmarked) [Compound 65, 4-(2-(4-((3-chlorobenzyl)oxy)phenyl)-7,8-dihydropyrido[4,3-d]pyrimidin-6(5H)-yl)pentanoic acid]
16 | < 1000 | > 1000 | < 10 | > 1000 | Cc1ccccc1COc1ccc(-c2ncc3c(n2)CCN(CC(C)CC(=O)O)C3)cc1 (centres unmarked) [Compound 234, 3-methyl-4-[2-[4-(o-tolylmethoxy)phenyl]-7,8-dihydro-5H-pyrido[4,3-d]pyrimidin-6-yl]butanoic acid 2,2,2-trifluoroacetic acid salt]
17 | > 1000 | > 1000 | 10 to 100 | > 1000 | C[C@@H](CC(=O)O)CN1CCc2nc(-c3ccc(OCc4ccc(Cl)cc4)cc3)ncc2C1=O [Compound 267, (S)-4-(2-(4-((4-chlorobenzyl)oxy)phenyl)-5-oxo-7,8-dihydropyrido[4,3-d]pyrimidin-6(5H)-yl)-3-methylbutanoic acid]
18 | > 1000 | > 1000 | 10 to 100 |  | Cc1cccc(COc2ccc(-c3ncc4c(n3)CCN(CC(C)CC(=O)O)C4)c(F)c2)c1 (centres unmarked) [Compound 264, 4-[2-[2-fluoro-4-(m-tolylmethoxy)phenyl]-7,8-dihydro-5H-pyrido[4,3-d]pyrimidin-6-yl]-3-methyl-butanoic acid 2,2,2-trifluoroacetic acid salt]
19 | > 1000 | < 1000 | < 10 |  | CC(CC(=O)O)CN1CCc2nc(-c3ccc(OCC4CCCCC4)cc3)ncc2C1 (centres unmarked) [Compound 336, 4-(2-(4-(cyclohexylmethoxy)phenyl)-7,8-dihydropyrido[4,3-d]pyrimidin-6(5H)-yl)-3-methylbutanoic acid]
